Measurements from US8853234B2, “Quinolone analogs and methods related thereto” (Senhwa Biosciences, Inc., priority 2007, dated 2014).
Read-outs that look alike come from different tables or passages of the source.

Columns and labels:
rDNA = assay: Quantitative PCR (QPCR) assay, rRNA inhibition (rDNA); type: cell-based; set-up: Selectivity: reference not given here; conditions: for Selectivity: not defined in the patent; for IC50: rRNA inhibition from quantitative PCR assay
From the text: In a specific assay embodiment, provided herein is a method for identifying a molecule that modulates ribosomal RNA (rRNA) synthesis, which comprises: contacting cells with a test molecule of Formula (I), (II), (III), (IV), (V), (VI), (VI′), (VII), or (VIII), contacting a ribosomal nucleotide sequence with one or more primers that amplify a portion thereof and a labeled probe that hybridizes to the amplification product, and detecting the amount of the amplification product by hybridization of the labeled probe, whereby a test molecule that reduces or increases the amount of amplification product is identified as a molecule that modulates rRNA synthesis. The labeled probe in some embodiments is added after the primers are added and the rRNA is amplified, and in certain embodiments, the labeled probe and the primers are added at the same time. The portion of ribosomal nucleotide sequence amplified sometimes is at the 5′ end of rDNA.
Real-time quantitative PCR (QPCR) method may be used to detect the changes of the target c-myc and the endogenous reference GAPDH gene copies in the same tube. Generally, cells (15,000 cells/well) are seeded on 96 well flat bottom plates (Corning, N.Y.) and incubated under normal growth conditions for overnight. The next day, the culture medium is exchanged for that containing anticancer drugs at various concentrations and incubated for 4 hrs in a humidified atmosphere of 5% CO2 at 37° C. Total RNA (tRNA) is extracted using the RNeasy 96 Kit (QIAGEN, CA). The concentration of the tRNA is determined by the RiboGreen RNA Quantitation Reagent (Molecular Probes, OR).
A reverse-transcription (RT) reaction may be conducted using 50 ng of tRNA from each well in a 25 μl reaction containing 1× TaqMan RT buffer, 2.5 uM random hexamers, 5.5 mM MgCl2, 0.5 mM each deoxynucleoside triphosphate (dNTP), 30 U MultiScribe Reverse Transcriptase, and 10 U RNase inhibitor. RT reactions are incubated for 10 min at 25° C., reverse-transcribed for 30 min at 48° C., inactivated for 5 min at 95° C., and placed at 4° C. All RT reagents may be purchased from Applied Biosystems, CA.
Real-Time QPCR reaction may be performed in a 50 μl reaction containing the 5 μl of cDNA, 1× Universal PCR Master Mix, 1× c-myc Pre-Developed Primers and Probe set, and 0.8×GAPDH Pre-Developed Primers and Probe set. Because of the relative abundance of GAPDH gene in Hela, GAPDH primers and probe concentration may be adjusted to get accurate threshold cycles (CT) for both genes in the same tube. The threshold cycle (CT) indicates the fractional cycle number at which the amount of amplified target reaches a fixed threshold. By doing so, the GAPDH amplification is stopped before it can limit the common reactants available for amplification of the c-myc. The ΔRn value represents the normalized reporter signal minus the baseline signal. ΔRn increases during PCR as amplicon copy number increases until the reaction approaches a plateau.
The c-myc probe is labeled with 6FAM™ dye-MGB and the GAPDH probe is labeled with VIC™ dye-MTB. Preincubation is performed for 2 min at 50° C. to activate AmpErase UNG enzyme and then for 10 min at 95° C. to activate AmpliTaq DNA Polymerase. DNA is amplified for 40 cycles of 15 sec at 95° C. and 1 min at 60° C. Human c-myc and GAPDH cDNA are amplified, detected, and quantitated in real time using the ABI Prism 7000 Sequence Detection system (Applied Biosystems, CA), which is set to detect both 6-FAM and VIC reporter dyes simultaneously.
The data may be analyzed using the ABI PRISM Sequence Detection System and Microsoft Excel. Relative quantitation is done using the standard curve and comparative CT method at the same time, and both methods gave equivalent results. The cycle at which the amplification plot crosses the CT is known to accurately reflect relative mRNA values. (See, Heid, et al., Genome Res. (1996) 6:986-994; Gibson, et al., Genome Res. (1996) 6:995-1001). […]

[1] = Cassette dosing oral pharmacokinetics in ICR mice; type: in vivo; conditions: ICR (IcrTac:ICR), mouse; cassette oral dose 25 mg/kg, female ICR mice, plasma, 0-8 h, none in table
Procedure: A cassette dosing procedure was utilized to determine pharmaceutical properties of compounds disclosed herein. In this procedure, compounds are selected for each cassette (i.e., cocktail) on the basis that mass spectrometric signals for each compound will not interfere with one another upon mass spectrometric analysis (e.g., will not overlap). The concentration of each compound in the dosing cassette often is about 20 mg/mL to achieve an oral dose level of 25 mg/kg in ICR mice. Aspects of the cassette dosing procedure are described hereafter.
Prepare 0.5 mL of 20 mg/mL dosing solution (in PBS or formulation vehicle) of 12 test compounds. Dilute a dosing solution 20 fold by transferring 10 μL of the stock solution into 190 μL acetonitrile containing 0.1% formic acid to achieve a final concentration of 1 mg/mL. Dilute further a 1 mg/mL solution 1,000 fold by transferring 1 μL of the stock solution into 999 μL acetonitrile containing 0.1% formic acid to achieve a final concentration of 1 μg/mL. Use the 1 μg/mL solution for mass spectrometric method development based on direct infusion. Determine parent/daughter mass spectra of each compound using multiple reaction monitoring (MRM). Compare parent/daughter mass spectra of each compound to assure no cross-reaction interference during LC-MS/MS measurements. Based on MRM mass spectra determine the composition of all cassettes.
Mix 250 μL of four prepared dosing solutions and an oral PK internal standard (20 mg/mL each) according to cassette design to achieve a final concentration of 4 mg/mL. Vortex cassettes rigorously and ultra-sonicate to obtain a clear solution or homogeneous suspension. Use the cassette solutions to dose animals by oral route of administration at 25 mg/kg.
All in vivo experiments follow protocols approved by the Animal Use and Care Committee. Female ICR mice (IcrTac:ICR), 8-10 weeks of age are obtained from Taconic (Hudson, N.Y.). Mice are housed on a 12 h/12 h light/dark cycle with ad libitum access to water and food. After a minimum two week acclimation period, the mice are randomized into groups with a minimum group size of four. The animals used for pharmacokinetic studies have a body-weight range of 25-35 g. A 25 mg/kg (4 mg/ml) dose of a cassette described in Example 1 is orally administered to mice that have been fasted overnight.
After compound administration, serial blood samples are collected via retro-orbital puncture with a capillary tube at various time points (15, 30 minutes and 1, 2, 4, 6 and 8 hours). The samples are transferred to a heparinized 0.5 mL microcentrifuge tube and placed on ice. Plasma is separated by centrifugation and samples are stored at −80° C. until assay.
Dilute a cassette dosing solution (4 mg/mL) four fold by transferring 25 μL of the stock solution into 75 μL of 50% acetonitrile containing 0.1% formic acid to achieve the concentration of 1 mg/mL. Dilute this stock solution further by serial dilutions to make 0.01, 0.1, 1 and 5 μg/mL working standard solutions.
Prepare 500 mL of 0.5 μg/mL solution of bioanalytical internal standard using 100% acetonitrile with 0.1% formic acid. Store the quenching solution in a tightly sealed bottle at 4° C.
Transfer 15 μL of blank mouse plasma to a 96 well plate and precipitate plasma proteins by pipetting of 120 μL of quenching solution to all plasma aliquots. Cover the plate with a matching plate mat and mix well for 30-60 seconds using a vertical multi-tube shaker.
Add 15 μL of the working standard solution of corresponding cassette to quenched plasma and vortex the plate for an additional 30-60 seconds. Then, centrifuge the plate at 4,000 rpm for 10 minutes at 4° C. Without disturbing the plasma protein pellet, transfer 120 μL of the supernatant to a new 96 well plate and dry the sample under nitrogen using a TurboVap® plate evaporator (Caliper Life Sciences; Hopkinton, Mass.). Reconstitute dried residues with 120 μL 20% acetonitrile containing 0.1% formic acid. […]

[2] = tested on: a variety of cell types that are representative of different cancers; assay: Alamar Blue cell viability assay, variety of cell types representative of different cancers (Tables 12-14); type: cell-based; conditions: Homo sapiens
Procedure: A representative cell-proliferation assay protocol using Alamar Blue dye (stored at 4° C., use 20 ul per well) is described hereafter.
96-Well Plate Setup and Compound Treatment
a. Split and trypsinize cells.
b. Count cells using hemocytometer.
c. Plate 4,000-5,000 cells per well in 100 μl of medium and seed into a 96-well plate according to the following plate layout. Add cell culture medium only to wells B10 to B12. Wells B1 to B9 have cells but no compound added.
d. Add 100 μl of 2× drug dilution to each well in a concentration shown in the plate layout above. At the same time, add 100 μl of media into the control wells (wells B10 to B12). Total volume is 200 μl/well.
e. Incubate four (4) days at 37° C., 5% CO2 in a humidified incubator.
f. Add 20 μl Alamar Blue reagent to each well.
g. Incubate for four (4) hours at 37° C., 5% CO2 in a humidified incubator.
h. Record fluorescence at an excitation wavelength of 544 nm and emission wavelength of 590 nm using a microplate reader.
In the assays, cells are cultured with a test compound for approximately four days, the dye then is added to the cells and fluorescence of […] dye is detected after approximately four hours. Different types of cells can be utilized in the assays (e.g., HCT-116 human colorectal carcinoma cells, PC-3 human prostatic cancer cells and MiaPaca human pancreatic carcinoma cells). Anti-proliferative effects of representative compounds are provided hereafter.
(§1) Inhibitory activity on cell proliferation of Compounds A1, A2 and A3 was determined using an Alamar Blue cell viability assay (e.g., Example 39 herein) using a variety of cell types that are representative of different cancers Inhibition values (IC50) are presented in micromolar concentrations in the following table (Table 12).
as §1, with “representative compounds of the invention” for “Compounds A1, A2 and A3”, “Table 13 and Table 14.” for “the following table (Table 12).”

[3] = HCT-116, HCT-116 cells, Table 13, read-out: AB: HCT-116 (IC50)
[4] = K562, K-562 cells, Table 13, read-out: AB: K-562 (IC50)
[5] = MV4-11, MV-4-11 cells, Table 13, read-out: AB: MV-4-11 (IC50)
[6] = PC-3, PC3 cells, Table 13, read-out: AB: PC3 (IC50)
[7] = K562, K-562 cells, Table 14, read-out: AB: K-562 (IC50)
[8] = MIA PaCa-2, MiaPaCa cells, Table 14, read-out: AB: MiaPaCa (IC50)
[9] = MV4-11, MV-4-11 cells, Table 14, read-out: AB: MV-4-11 (IC50)
[10] = PC-3, PC3 cells, Table 14, read-out: AB: PC3 (IC50)
[11] = THP-1, THP-1 cells, Table 14, read-out: AB: THP-1 (IC50)

| Compound | IC50 [2, 3] | IC50 [2, 6] | IC50 [2, 7] | IC50 [2, 8] | IC50 [2, 9] | IC50 [2, 10] | IC50 [2, 11] | other results |
| --- | --- | --- | --- | --- | --- | --- | --- | --- |
| CN1CCN(NC(=O)c2c(=O)c3cc(F)c(N4CCOCC4)nc3n3c2sc2ccccc23)CC1 | – | – | – | – | – | – | – | Selectivity (rDNA): 89; IC50 (rDNA): 0.102 µM; AUC(0-t) [1]: 4360 ng·h/mL |
| O=C(NCc1ccccn1)c1c(=O)c2cc(F)c(N3CCOCC3)nc2n2c1sc1ccccc12 | – | – | – | – | – | – | – | Selectivity (rDNA): 1; IC50 (rDNA): 22.6 µM; AUC(0-t) [1]: 90600 ng·h/mL |
| O=C(NC1CC1)c1c(=O)c2ccc(NCC(O)c3ccccc3)nc2n2c1sc1ccccc12 (stereo not shown) | > 10000 nM | > 10000 nM | – | – | – | – | – | IC50 [2, 4]: > 10000 nM; IC50 [2, 5]: > 10000 nM |
| COCCNC(=O)c1c(=O)c2ccc(NCC(O)c3ccccc3)nc2n2c1sc1ccccc12 (stereo not shown) | 133 nM | 3740 nM | – | – | – | – | – | – |
| CN1CCN(C(=O)c2c(=O)c3ccc(NCC(O)c4ccccc4)nc3n3c2sc2ccccc23)CC1 (stereo not shown) | 2510 nM | 6670 nM | – | – | – | – | – | IC50 [2, 4]: 3130 nM; IC50 [2, 5]: 543 nM |
| CN1CCCCC1CNC(=O)c1c(=O)c2ccc(NCC(O)c3ccccc3)nc2n2c1sc1ccccc12 (stereo not shown) | 267 nM | 633 nM | – | – | – | – | – | – |
| O=C(NCC1CC1)c1c(=O)c2ccc(NCC(O)c3ccccc3)nc2n2c1sc1ccccc12 (stereo not shown) | > 10000 nM | 6080 nM | – | – | – | – | – | IC50 [2, 4]: > 10000 nM; IC50 [2, 5]: 5030 nM |
| CN1CCCN(c2nc3c(cc2F)c(=O)c(C(=O)NCc2ccccn2)c2sc4ccccc4n23)CC1 | – | – | 118 nM | 941 nM | 43 nM | 7770 nM | 1330 nM | – |
| CN1CCCN(c2nc3c(cc2F)c(=O)c(C(=O)NCc2cccnc2)c2sc4ccccc4n23)CC1 | – | – | 32 nM | 133 nM | < 30 nM | 2480 nM | 356 nM | – |
| CN1CCCN(c2nc3c(cc2F)c(=O)c(C(=O)NCc2ccncc2)c2sc4ccccc4n23)CC1 | – | – | 95 nM | 131 nM | < 30 nM | 6590 nM | 1060 nM | – |
| CN1CCCN(c2nc3c(cc2F)c(=O)c(C(=O)N2CCOCC2)c2sc4ccccc4n23)CC1 | – | – | 110 nM | 352 nM | < 30 nM | 1210 nM | 590 nM | – |
| CN1CCCN(c2nc3c(cc2F)c(=O)c(C(=O)NN2CCOCC2)c2sc4ccccc4n23)CC1 | – | – | 267 nM | 359 nM | 124 nM | 1800 nM | 1320 nM | – |
| CN1CCCN(c2nc3c(cc2F)c(=O)c(C(=O)NCCCO)c2sc4ccccc4n23)CC1 | – | – | 51 nM | < 120 nM | 32 nM | 2640 nM | 571 nM | – |
| Cc1cnc(CNC(=O)c2c(=O)c3ccc(N4CCCNCC4)nc3n3c2sc2ccccc23)cn1 | – | – | 101 nM | 637 nM | 84 nM | – | – | – |
